Entries after “also recorded” stand apart in the source; their conditions may differ. Structures can show the parent of a compound that is named as a salt. Where two headings read alike, the source gives them in different places.
Legend:
Water solubility = format: physicochemical
[1] = system: conscious renally hypertensive dogs; assay: Blood pressure lowering in conscious renally hypertensive dogs, oral; format: in vivo, dog
Description: The antihypertensive activity of the compounds of the invention is shown by their ability to lower the blood pressure of conscious spontaneously hypertensive rats and conscious renally hypertensive dogs, when administered orally at doses of up to 30 mg./kg.
Similarly, at the same dosage 2-[4-(2-hydroxy-2-methylprop-1-yloxycarbonyl)piperazin-1-yl]-4-amino-6-chloro-7-methoxyquinazoline, a particularly preferred compound of the invention, caused a reduction of 40 mm. Hg after one hour which increased only by 20 mm. Hg 6 hours after administration; and another particularly preferred compound: 2-[4-(2-furoyl)-1-piperazinyl]-4-amino-6-chloro-7-methoxyquinazoline effected a reduction in blood pressure of 40 mm. Hg which increased by only 5 mm. Hg six hours after the oral dose (0.2 mg./hg.) had been administered.

[2] = Althuis et al., J. Med. Chem., 20, 146 (1977); cited from earlier work
[3] = literature; cited from earlier work
[4] = Example 10 table, hydrochloride salts except as otherwise noted, solvent not given, read-out: Solubility
[5] = water, hydrochloride salts, read-out: water solubility

Question: Which solubility (Water solubility; [4]) does the source give for `COc1ccc2c(N)nc(N3CCN(C(=O)C4CCCO4)CC3)nc2c1OC` (stereo not shown) here?
Answer: The solubility was 150 mg/mL.

Question: For `COc1ccc2c(N)nc(N3CCN(C(=O)c4cccs4)CC3)nc2c1OC`, which solubility (Water solubility; [4]) is on record?
Answer: Its solubility is 11 mg/mL.

Question: With `COc1ccc2c(N)nc(N3CCN(C(=O)c4ccccc4)CC3)nc2c1OC` as the compound, how does the solubility (Water solubility; [4]) read?
Answer: The solubility was 50 mg/mL.

Question: For `COc1ccc2c(N)nc(N3CCN(C(=O)C4COc5ccccc5O4)CC3)nc2c1OC` (stereo not shown), which solubility (Water solubility; [4]) is on record?
Answer: Its solubility is 15 mg/mL.

Question: Which “reduction in blood pressure” value ([1]; 0.2 mg./hg. as printed, time of reduction not given) does the source give for `COc1cc2nc(N3CCN(C(=O)c4ccco4)CC3)nc(N)c2cc1Cl` [2-[4-(2-furoyl)-1-piperazinyl]-4-amino-6-chloro-7-methoxyquinazoline] here?
Answer: Its value is 40 mm. Hg.

Question: What about the heart rate change ([1]; 0.2 mg./kg.) of the same compound?
Answer: The heart rate change was “no significant heart rate change”.

Question: And the other side effect ([1]; 0.2 mg./kg.)?
Answer: The other side effect was “no significant heart rate change or other unwanted side effect”.

Question: What about the “increase (return) of the reduced blood pressure 6 hours after administration” value ([1]; 0.2 mg./kg.) of the same compound?
Answer: The value was 5 mm. Hg.

Question: With `COc1c(Cl)cc2c(N)nc(N3CCN(C(=O)OCC(C)(C)O)CC3)nc2c1OC` [2-[4-(2-hydroxy-2-methylprop-1-yloxycarbonyl)piperazin-1-yl]-4-amino-6-chloro-7,8-dimethoxyquinazoline] as the compound, how does the heart rate change ([1]; 0.2 mg./kg.) read?
Answer: Its heart rate change is “no significant change in heart rate”.

Question: What about the other side effect ([1]; 0.2 mg./kg.) of the same compound?
Answer: The other side effect was “no significant change in heart rate or other side effect”.

Question: And the “decrease of blood pressure after 4 hours” value ([1]; 0.2 mg./kg., 4 hours, statistically significant)?
Answer: Its value is 30 mm. Hg.

Question: Which heart rate change ([1]; 0.2 mg./kg.) does the source give for `COc1cc2nc(N3CCN(C(=O)OCC(C)(C)O)CC3)nc(N)c2cc1Cl` [2-[4-(2-hydroxy-2-methylprop-1-yloxycarbonyl)piperazin-1-yl]-4-amino-6-chloro-7-methoxyquinazoline] here?
Answer: The heart rate change was “no significant heart rate change”.

Question: And the other side effect ([1]; 0.2 mg./kg.)?
Answer: Its other side effect is “no significant heart rate change or other unwanted side effect”.

Question: What about the “increase (return) of the reduced blood pressure 6 hours after administration” value ([1]; 0.2 mg./kg.) of the same compound?
Answer: Its value is 20 mm. Hg.

Question: And the “reduction of blood pressure after one hour” value ([1]; same dosage (0.2 mg./kg.), one hour)?
Answer: Its value is 40 mm. Hg.

Question: With `COc1ccc2c(N)nc(N3CCN(c4cccc(C(F)(F)F)c4)CC3)nc2c1OC` [3-CF3 C6 H4] as the compound, how does the solubility (Water solubility; [4]) read?
Answer: Its solubility is 8 mg/mL.

Question: What does the source list for `COc1cc2nc(N3CCN(C(=O)c4ccco4)CC3)nc(N)c2cc1O` [6-0-demethyl derivative]?
Answer: metabolite of prazosin [2]: major metabolite of prazosin; antihypertensive activity / potency [3]: considerably lower blood pressure lowering activity

Question: Which metabolite of prazosin [2] does the source give for `COc1cc2c(N)nc(N3CCN(C(=O)c4ccco4)CC3)nc2cc1O` [7-0-demethyl derivative] here?
Answer: Its metabolite of prazosin is “less prevalent metabolite”.

Question: Which solubility (Water solubility; [4]) does the source give for `COc1ccc2c(N)nc(N3CCN(c4ccccc4)CC3)nc2c1OC` [C6 H5] here?
Answer: Its solubility is 25 mg/mL.

Question: Which solubility (Water solubility; [4]) does the source give for `COc1ccc2c(N)nc(N3CCN(Cc4ccccc4)CC3)nc2c1OC` [CH2 C6 H5] here?
Answer: Its solubility is 100 mg/mL.

Question: For `COc1ccc2c(N)nc(N3CCN(CCO)CC3)nc2c1OC` [CH2 CH2 OH], which solubility (Water solubility; [4]) is on record?
Answer: The solubility was 95 mg/mL.

Question: For `C=CCN1CCN(c2nc(N)c3ccc(OC)c(OC)c3n2)CC1` [CH2 CHCH2], which solubility (Water solubility; [4]) is on record?
Answer: The solubility was 50 mg/mL.

Question: With `CCCOC(=O)N1CCN(c2nc(N)c3ccc(OC)c(OC)c3n2)CC1` [COO(CH2)2 CH3] as the compound, how does the solubility (Water solubility; [4]) read?
Answer: The solubility was 140 mg/mL.

Question: For `COc1ccc2c(N)nc(N3CCN(C(=O)OCCC(C)C)CC3)nc2c1OC` [COO(CH2)2 CH(CH3)2], which solubility (Water solubility; [4]) is on record?
Answer: The solubility was 25 mg/mL.

Question: With `CCCCCOC(=O)N1CCN(c2nc(N)c3ccc(OC)c(OC)c3n2)CC1` [COO(CH2)4 CH3] as the compound, how does the solubility (Water solubility; [4]) read?
Answer: Its solubility is 40 mg/mL.

Question: Which solubility (Water solubility; [4]) does the source give for `CCCCOC(=O)N1CCN(c2nc(N)c3ccc(OC)c(OC)c3n2)CC1` [COO(CH 2)3 CH3] here?
Answer: The solubility was 90 mg/mL.

Question: For `CCOC(=O)N1CCN(c2nc(N)c3ccc(OC)c(OC)c3n2)CC1` [COOCH2 CH3], which solubility (Water solubility; [4]) is on record?
Answer: The solubility was 50 mg/mL.

Question: For `COc1ccc2c(N)nc(N3CCN(C(=O)OCC(C)C)CC3)nc2c1OC` [COOCH2 CH(CH3)2], which solubility (Water solubility; [4]) is on record?
Answer: The solubility was 40 mg/mL.

Question: For `COC(=O)N1CCN(c2nc(N)c3ccc(OC)c(OC)c3n2)CC1` [COOCH3], which solubility (Water solubility; [4]) is on record?
Answer: The solubility was 40 mg/mL.

Question: With `COc1ccc2c(N)nc(N3CCN(C(=O)c4ccco4)CC3)nc2c1OC.Cl` [Example 4, 2-[4-(2-Furoyl)piperazine-1-yl]-4-amino-7,8-dimethoxyquinazoline hydrochloride] as the compound, how does the solubility (Water solubility; [5]) read?
Answer: Its solubility is 20 mg/mL.

Question: With `COc1c(Cl)cc2c(N)nc(N3CCN(C(=O)c4ccco4)CC3)nc2c1OC.Cl` [Example 8A, 2-[4-(2-Furoyl)piperazine-1-yl]-4-amino-6-chloro-7,8-dimethoxyquinazoline hydrochloride] as the compound, how does the solubility (Water solubility; [5]) read?
Answer: The solubility was 8 mg/mL.

Question: For `COc1cc2nc(N3CCN(C(=O)c4ccco4)CC3)nc(N)c2cc1Cl.Cl` [Example 8B, 2-[4-(2-Furoyl)piperazine-1-yl]-4-amino-6-chloro-7-methoxyquinazoline hydrochloride], which solubility (Water solubility; [5]) is on record?
Answer: Its solubility is 5 mg/mL.

Question: For `COc1c(Cl)cc2c(N)nc(N3CCN(C(=O)OCC(C)(C)O)CC3)nc2c1OC.Cl` [Example 9A, 2-Methyl-2-hydroxypropyl 4-[4-amino-6-chloro-7,8-dimethoxyquinazolin-2-yl]piperazine-1-carboxylate hydrochloride], which solubility (Water solubility; [5]) is on record?
Answer: The solubility was 35 mg/mL.

Question: With `COc1cc2nc(N3CCN(C(=O)OCC(C)(C)O)CC3)nc(N)c2cc1Cl` [Example 9B, hydrochloride] as the compound, how does the solubility (Water solubility; [5]) read?
Answer: Its solubility is 6 mg/mL.

Question: With `COc1ccc2c(N)nc(N3CCCN(C(=O)c4ccco4)CC3)nc2c1OC` [Example 11, 2-[4-(2-Furoyl-homopiperazine-1-yl]-4-amino-7,8-dimethoxyquinazoline hydrochloride] as the compound, how does the solubility (Water solubility; [5]) read?
Answer: Its solubility is 30 mg/mL.

Question: With `COc1ccc2c(N)nc(N3CCCN(C(=O)C4CCCO4)CC3)nc2c1OC.Cl` (stereo not shown) [Example 12, 2-[4-(2-Tetrahydrofuroyl)homopiperazin-1-yl]-4-amino-7,8-dimethoxyquinazoline hydrochloride] as the compound, how does the solubility (Water solubility; [5]) read?
Answer: The solubility was 120 mg/mL.

Question: With `COc1ccc2c(N)nc(N3CCC(Cc4ccccc4)CC3)nc2c1OC.Cl` [Example 13, 2-(4-Benzylpiperidin-1-yl)-4-amino-7,8-dimethoxyquinazoline hydrochloride] as the compound, how does the solubility (Water solubility; [5]) read?
Answer: Its solubility is 6 mg/mL.

Question: Which “antihypertensive activity / potency” value [3] does the source give for `COc1cc2c(N)nc(N3CCN(C(=O)OCC(C)(C)O)CC3)nc2c(OC)c1OC` [Trimazosin] here?
Answer: The value was “active antihypertensive agent; also recorded: less potent than prazosin”.

Question: Which “antihypertensive activity / potency” value [3] does the source give for `COc1cc2nc(N3CCN(C(=O)c4ccco4)CC3)nc(N)c2cc1OC` [prazosin, 2-[4-(2-furoyl)piperazin-1-yl]-4-amino-6,7-dimethoxyquinazoline] here?
Answer: Its value is “clinically useful antihypertensive agent”.

Reference: patent publication US4377581A, “Chloro- and alkoxy-substituted-2,4-diaminoquinazolines” (Pfizer Inc., priority 1981, dated 1983)
